# Assay results: patent publication US20250195660A1, “INACTIVATING BACTERIA WITH ELECTRIC PULSES AND ANTIBIOTICS” (Purdue Research Foundation, priority 2018, published 2025)
# What was measured:
# Type in all cases: cell-based
# [1] = test system: gentamicin, streptomycin and sulfonamide resistant Pseudomonas aeruginosa (BEI Resources NR-31040); test: Inactivation of P. aeruginosa by 300 ns electric pulses and/or antibiotics (CFU plating); conditions: 20 kV/cm EPs + 20 μg/mL
# Text: (§1) Except for rifampicin, the five other antibiotics in these examples primarily target gram-positive bacteria and are largely ineffective or not used against gram-negative bacteria in a clinical setting.
# (§2) A Blumlein pulsed generator consisting of two lines comprised of twelve 2000 pF capacitors connected by inductors produced 300 ns EPs with rise-times of 30 ns and fall-times of 35 ns at a repetition frequency of 1 Hz (12). The EPs were applied to a standard 2 mm gap electroporation cuvette (Dot Scientific R) filled with a solution containing the microorganisms. Used was a Luria broth of 0.5% salinity (5 grams of NaCl/Liter) for the solution to electrically match the resistance of the sample with the impedance of the pulse generator (11Ω) to prevent signal reflection. The voltage measurements were taken using a LeCroy PPE 20 kV high voltage probe with a 1000:1 attenuation recorded by a TeleDyne LeCroy® Waverunner 6 Zi Oscilloscope with a bandwidth of 4 GHZ.
# (§3) The gram-negative strains included a carbapenem-resistant Escherichia coli (ATCC® BA-2452TM, New Delhi metallo-beta-lactamase NDM-1 positive.), Klebsiella pneumoniae (ATCC® BAA-2146TM NDM-I positive), and a gentamicin, streptomycin and sulfonamide resistant Pseudomonas aeruginosa (BEI Resources NR-31040). Assessed was the gram-positive strain of methicillin resistant Staphylococcus aureus (USA300-0114 strain), which is also resistant to erythromycin and tetracycline. Samples were cultured in Luria broth (LB Broth Lennox, powder microbial growth medium, SIGMA-ALDRICH®) by taking 25 mL of broth in a 50 mL sterile conical tube and incubating in a shaker for 16 h at 37° C. Samples were diluted 50% by adding 25 mL media to the incubated sample as we plated controls for each experiment and condition.
# (§4) Samples were treated in 2 mm gap cuvettes containing 365 μL of sample between the electrodes, with bio-grade mineral oil added on top of the electrode plates to prevent arcing.
# (§5) To establish a common baseline for comparing different NSEP parameters, we fixed the energy density U delivered to the cuvettes according to Formula (1) (above). For 300 ns EPs, 500 EPs at 20 kV/cm and 222 EPs at 30 kV/cm delivered the same energy to the sample.
# (§6) Tissue culture Petri dishes from VWR R (15 cm diameter, 10 mm height) were utilized for plating. Each plate was covered with 15 mL of Luria broth (Agar, microbiology tested powder, SIGMA-ALDRICH®), which was prepared by adding 20 g of LB Lennox (SIGMA-ALDRICH) and 15 g/L of agar to water prior to being autoclaved. The salinity of the agar was the same as the LB (0.5% NaCl) to minimize additional environmental stressors on the bacteria.
# (§7) Removed was 20 μL from each cuvette and added to 180 μL of PBS in a 96-well dish in triplicate. Each well was then diluted by a ratio of 10:1 five additional times by taking 20 μL of the diluted sample into subsequent wells using multi-channel pipettes (using fresh tips for each dilution). Plated were the six dilutions of each sample two times each by adding 4 μL from each well onto the Petri dish using a multi-channel pipette, which allowed the plating of all three replicates on the same plate to achieve n=6. These plates were then cultured overnight in an incubator at 37° C., and counted the next day.
# [2] = test system: carbapenem-resistant Escherichia coli (ATCC BA-2452, NDM-1 positive); test: Inactivation of carbapenem-resistant E. coli by 300 ns electric pulses and/or antibiotics (CFU plating); conditions: 30 kV/cm NSEPs + 20 μg/mL
# Text: as §1, §2, §3, §4, §5, §6, §7
# [3] = test system: Klebsiella pneumoniae (ATCC BAA-2146 NDM-I positive); test: Inactivation of K. pneumoniae by 300 ns electric pulses and/or antibiotics (CFU plating)
# Text: as §1, §2, §3, §4, §5, §6, §7
smiles,measurement,setting,value
CO[C@H]1/C=C/O[C@@]2(C)Oc3c(C)c(O)c4c(O)c(c(/C=N/N5CCN(C)CC5)c(O)c4c3C2=O)NC(=O)/C(C)=C\C=C\[C@H](C)[C@H](O)[C@@H](C)[C@@H](O)[C@@H](C)[C@H](OC(C)=O)[C@@H]1C [rifampicin],synergy (FIG. 11B legend),[1],approximately 2 log
same,log reduction of E. coli,[2],6 log
same,"additional inactivation compared to NSEPs alone, K. pneumoniae",[3]; 30 kV/cm NSEPs + 2 μg/mL,1 log
same,log reduction of K. pneumoniae,[3]; 30 kV/cm NSEPs + 2 μg/mL,5 log
same,"additional inactivation compared to NSEPs alone, K. pneumoniae",[3]; 30 kV/cm NSEPs + 20 μg/mL,1 log
